Measurements as given in patent US20220118159A1, “ANTIOXIDANT-RELEASING VITREOUS SUBSTITUTES AND USES THEREOF” (Ohio State Innovation Foundation, priority 2019, published 2022).
“Also recorded” adds a separate entry of the source. Like-named read-outs stand apart in the source and are kept apart here.

What was measured:
[1] = system: ARPE-19; test: CellTiter-Glo luminescent cell viability assay
Experimental: (§1) Cell Viability and ROS Activity Assays. ARPE-19 and LEC were seeded in 96-well plates at 1×10^4 cells per well in DMEM/F-12 and DMEM, respectively, supplemented with 10% FCS and 1% Pen Strep for 24 h at 37° C. in 5% CO2 humidified atmosphere. The hydrogels were submerged in 70% ethanol for 1 hour to sterilize, rinsed with deionized water 3 times for 1 hour each to remove the residual ethanol, and mixed well with serum-free and phenol red-free DMEM at a hydrogel concentration of 10% w/v (J. Chang, et al., J Mater Chem B. 2015, 3, 1097-1105; Y. Tao, et al., Acta Biomater. 2013, 9, 5022-5030; M. Annaka, et al., Biomacromolecules. 2011, 12, 4011-4021; and S. Lamponi, et al., J. Biomater. Sci. Polym. Ed. 2012, 23, 555-575). The culture medium in each well was removed and medium (100 μL) with/without hydrogel and with/without vitamin C (2.2 mM) was added to each well and incubated for 24 hours. Hydrogen peroxide (10 200 μM final concentration) was added to half of the wells, and DPBS (10 μL) was added to the remaining wells as a control (A. Heckelen, et al., Acta Ophthalmol Scand. 2004, 82, 564-568; and H. S. Lee, et al., Invest. Ophthalmol. Vis. Sci. 2017, 58, 1196-1207). The well plates were incubated for 30 minutes. CellTiter-Glo luminescent cell viability assay was conducted according to the manufacturer's protocol. Briefly, the well plates were equilibrated to room temperature for 30 minutes. CellTiter-Glo Reagent (100 μL) was added to each well, and the contents were mixed for 10 minutes using an orbital shaker. The well plates were incubated at room temperature for 10 minutes before the luminescent signal was measured using the Synergy HT multi-mode microplate reader. ROS activity was detected using DCF. Briefly, DCF (100 20 μM final concentration) was added to each well, and the contents were incubated at room temperature for 30 minutes (Y. Ou, et al., Chem Biol Interact. 2009, 179, 103-109). The fluorescence signal was measured with excitation and emission wavelengths of 485 and 525 nm, respectively, using a TECAN M200 Plate Reader (Männedorf, Switzerland).
(§2) Screening of Hydrogen Peroxide, Vitamin C, and Glutathione Concentrations Using a Cell Viability Assay: ARPE-19 and LEC were seeded in 96-well plates at 1×10^4 cells per well in DMEM/F-12 and DMEM, respectively, supplemented with 10% FCS and 1% Pen Strep for 24 h at 37° C. in 5% CO2 humidified atmosphere. The culture medium in each well was removed and various media with vitamin C (2000 μM, 1000 μM, 500 μM, 100 μM, and 0 μM) or glutathione (10000 μM, 4000 μM, 2000 μM, 1000 μM, 500 μM, and 0 μM) was added to each well (100 μL) and incubated for 24 hours. Hydrogen peroxide (600 μM, 400 μM, 200 μM, 100 μM, 50 μM, and 0 μM) and a special case of vitamin C (2000 μM) was added (100 μL) 30 minutes before performing the viability assays. CellTiter-Glo luminescent cell viability assay was conducted according to the manufacturer's protocol. Briefly, the well plates were equilibrated to room temperature for 30 minutes. CellTiter-Glo Reagent (100 μL) was added to each well, and the contents were mixed for 10 minutes using an orbital shaker.

[2] = system: LEC; test: CellTiter-Glo luminescent cell viability assay
Experimental: as §1, §2

[3] = Vitamin C remaining (stability) study, absorbance at 265 nm
Experimental: (§5) Chitosan (Sigma-Aldrich, low molecular weight, 1 mg/ml) was dissolved in acetic acid solution (1% w/w, 500 ml) for 60 min at 500 rpm. Sodium tripolyphosphate (1.75 mg/ml, 500 ml) was added dropwise into the chitosan solution to form nanoparticles over 2 hours. The nanoparticles were collected by centrifugation at 4000 rpm for 15 min at 21° C. The particles were washed with deionized water and again centrifuged. Vitamin C (10% w/w, 10 ml, pH 5.5) was added to the particles and equilibrated for 18 hours on an orbital shaker. Sodium alginate (FMC BioPolymer, Protanal PH, 1 mg/ml, 10 ml, pH 5.5) was added to the vitamin C and chitosan particle solution and sonicated for 30 min. Chitosan (Sigma-Aldrich, low molecular weight, 1 mg/ml in 1% w/w acetic acid solution, 10 ml) or gelatin (bloom 175, 1 mg/ml, 10 ml) was added to the vitamin c-chitosan-alginate particles and sonicated for 30 min. The particles were collected by centrifugation at 4000 rpm for 15 min at 21° C. and freeze dried. […] Concentration of vitamin C versus time was determined using methods as described elsewhere in the Examples.
(§6) Either the particle solutions or the chemically-stabilized Vitamin C solutions were incubated in the hydrogels at 37° C.
(§7) For each solution tested, a control group with no vitamin C and a test group with vitamin C (1% w/w) alone in DPBS were included. […] All solutions were kept at 37° C. throughout the release studies. The amount of viable vitamin C remaining in the solutions was measured using a Synergy HT multi-mode microplate reader (BioTek, Winooski, Vt.) at wavelength 265 nm and compared to the control groups to determine the amount of viable vitamin C left in the solutions. To measure the concentration of vitamin C, solutions with particles were centrifuged at 3220 rpm for 5 min and solution (500 uL) was removed and placed into a 96-well plate measured on days 0, 1, 2, 3, 4, 7, 8, 9, 10, 11, and 14. After two weeks, solutions with higher concentrations of vitamin C were measured every other day until vitamin C was undetectable. For the particle solutions, DPBS solutions (500 uL) was added back into the solution to maintain a constant volume.

[4] = system: ARPE-19; test: ROS activity, DCF assay; type: cell-based, human
Experimental: (§3) Cell Viability and ROS Activity Assays. […] The well plates were incubated for 30 minutes. […] ROS activity was detected using DCF. […] The fluorescence signal was measured with excitation and emission wavelengths of 485 and 525 nm, respectively, using a TECAN M200 Plate Reader (Männedorf, Switzerland).
(§4) Antioxidant Activity of Vitamin C in Reducing Reactive Oxygen Species (ROS) Activity Using DCF Assay: The ROS activity induced by hydrogen peroxide (200 μM for 30 minutes) of ARPE-19 and LEC treated with vitamin C (0, 100, and 1000 μM for 30 minutes or 24 hours) was determined using dichlorofluorescein assay. Briefly, LEC and ARPE-19 cells were cultured as aforementioned.

[5] = system: LEC; test: ROS activity, DCF assay; type: cell-based, human
Experimental: as §3, §4

[6] = 2 mM
Experimental: as §5, §6, §7

[7] = Sodium ascorbate degradation and release from polyacrylamide hydrogels; type: physicochemical; details: PBS, lag time about 36 hours after making
Experimental: The 2 mM sodium ascorbate solutions in PBS, which was diluted 20× before measurement as previously described, show an exponential-like decay in concentration over time (note that the y-axis is plotted on a log scale). Additionally, its concentration at time 0 was 1.4 mM, not 2 mM as made, since there was a lag time between when the solutions were made and when the experiment started. This lag time (about 36 hours) was due to the delayed gelation time of polyacrylamide hydrogels. The polymer solutions with sodium ascorbate gelled within 18 hours. However, the polymer solutions without sodium ascorbate took twice as long to gel.
The gelled polyacrylamide hydrogels (1 ml) with or without sodium ascorbate were submerged in 10 ml of PBS. […] The 1 ml aliquots were measured without dilution, since the sodium ascorbate concentrations were already within the linear region of the standard curve.
The absorbance readings of the hydrogels without sodium ascorbate increase with time. Since there was no sodium ascorbate added to these hydrogels, the increase in absorbance could be due to the small pieces of polymer leached out from the hydrogel causing UV light interference. […] The absorbance readings of hydrogels without sodium ascorbate can be subtracted from the ones with sodium ascorbate to obtain the true absorbance reading due to the varying concentrations of sodium ascorbate.

[8] = glutathione, all tested conditions up to 10000 μM, 24 hours
[9] = vitamin C 100 μM for 24 hours, H2O2 200 μM
[10] = vitamin C 100 μM, after 24 hours, not treated with H2O2
[11] = vitamin C 100 and 1000 μM for 30 minutes
[12] = Example 7: hydrogen peroxide 200 μM final, 30 minutes, vs non-treated
[13] = H2O2 200 μM and 400 μM, 30 minutes
[14] = hydrogen peroxide 600 μM, 30 minutes
[15] = hydrogen peroxide at or below 100 μM, 30 minutes
[16] = hydrogen peroxide 200 μM, 30 minutes, compared to control

N[C@@H](CCC(=O)N[C@@H](CS)C(=O)NCC(=O)O)C(=O)O [Glutathione, glutathione]
change of cell viability ([1]; glutathione concentration above 100 μM): increased
cell viability [1, 8]: above 70%
change of cell viability ([2]; glutathione 4000 μM and 10000): decreased
cell viability [2, 8]: above 70%
maintenance of vitamin C concentrations ([3]; particles, presence of glutathione (FIGS. 18-19)): improved maintenance of vitamin C concentrations
vitamin C remaining ([3]; past 14 days, glutathione 4-10 mM (FIG. 25)): More than half

O=C1O[C@H]([C@@H](O)CO)C(O)=C1O [Vitamin C, ascorbic acid]
reduction of ROS induced by hydrogen peroxide [4, 9]: not effective
ROS activity [4, 10]: returned to the same level as the control
ROS activity ([4]; vitamin C 1000 μM for 24 hours): did not return to the normal control level
ROS activity [4, 11]: 15-30%
reduction of ROS induced by hydrogen peroxide [5, 9]: not effective
ROS activity [5, 10]: returned to the same level as the control
ROS activity ([5]; vitamin C 1000 μM for 24 hours with H2O2): the same ROS activity as the no H2O2 no vitamin C control
ROS activity [5, 11]: 15-30%
vitamin C remaining ([6]; 72 h): 10%
vitamin C remaining ([6]; 5 days): 0%

O=C1O[C@H]([C@@H](O)CO)C([O-])=C1O.[Na+] [sodium ascorbate]
concentration of 2 mM sodium ascorbate solution at time 0 [7]: 1400 µM

OO [Hydrogen peroxide, hydrogen peroxide]
cell viability [1, 12]: approximately the same or even higher
cell viability [1, 13]: had no effect
cell viability [1, 14]: significantly decreased cell viability
cell viability [1, 15]: did not affect cell viability
cell viability [2, 12]: statistically lower
cell viability [2, 13]: significantly decreased the cell viability
cell viability [2, 14]: significantly decreased cell viability
cell viability [2, 15]: did not affect cell viability
ROS activity [4, 16]: did not affect; also recorded: did not significantly respond
increase in ROS activity ([5]; hydrogen peroxide 200 μM): 1.5 times
ROS activity [5, 16]: increased
